From PubChem BioAssay (NCI)
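Grown in 96-well plates, cells were treated for 48 hours with each compound at five concentrations. Insufficient inhibition: endpoint recorded as highest concentration tested. At the TGI there is no net growth.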

Legend:
Assay in all cases: growth of human tumour cells (NCI), 48 h
A549 NSCLC = tested on: A549 NSCLC
SNB-19 CNS = tested on: SNB-19 CNS
LOX IMVI melanoma = tested on: LOX IMVI melanoma
SR leukemia = tested on: SR leukemia
HCC-2998 colon = tested on: HCC-2998 colon
SK-MEL-28 melanoma = tested on: SK-MEL-28 melanoma
M14 melanoma = tested on: M14 melanoma
EKVX NSCLC = tested on: EKVX NSCLC
K-562 leukemia = tested on: K-562 leukemia
SNB-75 CNS = tested on: SNB-75 CNS
RPMI-8226 leukemia = tested on: RPMI-8226 leukemia
OVCAR-8 ovarian = tested on: OVCAR-8 ovarian
OVCAR-5 ovarian = tested on: OVCAR-5 ovarian
HCT-15 colon = tested on: HCT-15 colon
A498 renal = tested on: A498 renal
IGROV1 ovarian = tested on: IGROV1 ovarian
DU-145 prostate = tested on: DU-145 prostate

CC1=NN(C(=O)Cc2ccccc2)C(=O)/C1=C\C=C\c1ccccc1
TGI (A549 NSCLC): > 100 µM
TGI (SNB-19 CNS): > 100 µM
TGI (LOX IMVI melanoma): > 100 µM
TGI (SR leukemia): > 100 µM
TGI (HCC-2998 colon): > 100 µM
TGI (SK-MEL-28 melanoma): > 100 µM
TGI (M14 melanoma): > 100 µM
TGI (EKVX NSCLC): > 100 µM
TGI (K-562 leukemia): > 100 µM
TGI (SNB-75 CNS): > 100 µM
TGI (RPMI-8226 leukemia): > 100 µM
TGI (OVCAR-8 ovarian): > 100 µM
TGI (OVCAR-5 ovarian): > 100 µM
TGI (HCT-15 colon): > 100 µM

O=C1CCCC2=C1CC1=C(CCCC1=O)N2c1cccc2ccccc12
TGI (A549 NSCLC): > 100 µM
TGI (SNB-19 CNS): > 100 µM
TGI (LOX IMVI melanoma): > 100 µM
TGI (A498 renal): > 100 µM
TGI (SR leukemia): > 100 µM
TGI (HCC-2998 colon): > 100 µM
TGI (SK-MEL-28 melanoma): > 100 µM
TGI (M14 melanoma): > 100 µM
TGI (EKVX NSCLC): > 100 µM
TGI (K-562 leukemia): > 100 µM
TGI (SNB-75 CNS): > 100 µM
TGI (RPMI-8226 leukemia): > 100 µM
TGI (OVCAR-8 ovarian): > 100 µM
TGI (OVCAR-5 ovarian): > 100 µM
TGI (HCT-15 colon): > 100 µM
TGI (IGROV1 ovarian): > 100 µM

O=C1CCCc2cc3c(cc21)CCC3C(=O)O (centres undefined)
TGI (A549 NSCLC): > 100 µM
TGI (SNB-19 CNS): > 100 µM
TGI (LOX IMVI melanoma): > 100 µM
TGI (DU-145 prostate): > 100 µM
TGI (SR leukemia): > 100 µM
TGI (HCC-2998 colon): > 100 µM
TGI (SK-MEL-28 melanoma): > 100 µM
TGI (M14 melanoma): > 100 µM
TGI (EKVX NSCLC): > 100 µM
TGI (K-562 leukemia): > 100 µM
TGI (SNB-75 CNS): > 100 µM
TGI (RPMI-8226 leukemia): > 100 µM
TGI (OVCAR-8 ovarian): > 100 µM
TGI (OVCAR-5 ovarian): > 100 µM
TGI (HCT-15 colon): > 100 µM
TGI (IGROV1 ovarian): > 100 µM

COc1ccc(C2C(Cl)C(=O)N2NC(=O)Cc2ccccc2)cc1 (centres undefined)
TGI (A549 NSCLC): > 100 µM
TGI (SNB-19 CNS): > 100 µM
TGI (LOX IMVI melanoma): > 100 µM
TGI (SR leukemia): > 100 µM
TGI (HCC-2998 colon): > 100 µM
TGI (SK-MEL-28 melanoma): > 100 µM
TGI (M14 melanoma): > 100 µM
TGI (EKVX NSCLC): > 100 µM
TGI (K-562 leukemia): > 100 µM
TGI (SNB-75 CNS): > 100 µM
TGI (RPMI-8226 leukemia): > 100 µM
TGI (OVCAR-8 ovarian): > 100 µM
TGI (OVCAR-5 ovarian): > 100 µM
TGI (HCT-15 colon): > 100 µM
TGI (IGROV1 ovarian): > 100 µM

COc1cc(-c2coc3c(OC)c(OC4OC(CO)C(O)C(O)C4O)c(OC)cc3c2=O)cc(OC)c1C (centres undefined)
TGI (A549 NSCLC): > 55.6 µM
TGI (SNB-19 CNS): 28.6 µM
TGI (LOX IMVI melanoma): > 31.2 µM
TGI (DU-145 prostate): 26.8 µM
TGI (SR leukemia): > 100 µM
TGI (HCC-2998 colon): 18.6 µM
TGI (SK-MEL-28 melanoma): > 28.4 µM
TGI (M14 melanoma): 23.2 µM
TGI (EKVX NSCLC): 27.3 µM
TGI (K-562 leukemia): > 70.4 µM
TGI (SNB-75 CNS): 21.6 µM
TGI (RPMI-8226 leukemia): > 100 µM
TGI (OVCAR-8 ovarian): 25.3 µM
TGI (OVCAR-5 ovarian): 32.7 µM
TGI (HCT-15 colon): 19.6 µM
TGI (IGROV1 ovarian): 30.9 µM

CC1N(C)C(=O)OC12CCN(CCCC(=O)c1ccc(F)cc1)CC2 (centres undefined)
TGI (A549 NSCLC): > 100 µM
TGI (SNB-19 CNS): > 100 µM
TGI (LOX IMVI melanoma): > 100 µM
TGI (A498 renal): > 100 µM
TGI (DU-145 prostate): > 100 µM
TGI (SK-MEL-28 melanoma): > 100 µM
TGI (M14 melanoma): > 100 µM
TGI (K-562 leukemia): > 100 µM
TGI (SNB-75 CNS): > 100 µM
TGI (RPMI-8226 leukemia): > 100 µM
TGI (OVCAR-8 ovarian): > 100 µM
TGI (OVCAR-5 ovarian): > 100 µM
TGI (HCT-15 colon): > 100 µM
TGI (IGROV1 ovarian): > 100 µM

CCN(CC)Cc1cc(Nc2c3ccccc3nc3c2[nH]c2ccccc23)ccc1O
TGI (A549 NSCLC): 2.93 µM
TGI (SNB-19 CNS): 5.03 µM
TGI (LOX IMVI melanoma): 2.57 µM
TGI (A498 renal): 2.97 µM
TGI (SR leukemia): 1.01 µM
TGI (SK-MEL-28 melanoma): 3.47 µM
TGI (M14 melanoma): 3.11 µM
TGI (EKVX NSCLC): 6.32 µM
TGI (K-562 leukemia): > 100 µM
TGI (SNB-75 CNS): 3.35 µM
TGI (RPMI-8226 leukemia): 5.83 µM
TGI (OVCAR-8 ovarian): 3.11 µM
TGI (OVCAR-5 ovarian): 3.64 µM
TGI (HCT-15 colon): 3.25 µM
TGI (IGROV1 ovarian): 4.49 µM

CCCCCCCCCCCCCCCCP(=O)(O)OP(=O)(O)OCC1OC(n2cnc3c(N)ncnc32)C(O)C1O (centres undefined)
TGI (A549 NSCLC): > 100 µM
TGI (SNB-19 CNS): 42 µM
TGI (LOX IMVI melanoma): 70.5 µM
TGI (DU-145 prostate): > 100 µM
TGI (SR leukemia): > 100 µM
TGI (HCC-2998 colon): 44.8 µM
TGI (SK-MEL-28 melanoma): > 100 µM
TGI (M14 melanoma): 56.7 µM
TGI (EKVX NSCLC): > 100 µM
TGI (K-562 leukemia): > 100 µM
TGI (SNB-75 CNS): 45.3 µM
TGI (OVCAR-8 ovarian): 43.9 µM
TGI (OVCAR-5 ovarian): 29.2 µM
TGI (HCT-15 colon): 59.4 µM
TGI (IGROV1 ovarian): 35.9 µM

CCOC(=O)CC[C@@H](NC(=O)c1ccc(N[C@@H]2c3cc4c(cc3C(c3cc(OC)c(O)c(OC)c3)C3C(=O)OC[C@@H]32)OCO4)cc1)C(=O)OCC (some centres undefined)
TGI (SNB-19 CNS): 0.116 µM
TGI (A498 renal): 0.0668 µM
TGI (SR leukemia): > 10 µM
TGI (HCC-2998 colon): 0.318 µM
TGI (SK-MEL-28 melanoma): 0.53 µM
TGI (M14 melanoma): > 10 µM
TGI (EKVX NSCLC): 0.0799 µM
TGI (K-562 leukemia): > 10 µM
TGI (RPMI-8226 leukemia): > 10 µM
TGI (OVCAR-5 ovarian): 0.404 µM
TGI (HCT-15 colon): 0.233 µM
TGI (IGROV1 ovarian): 0.32 µM

O=C1CCC2SC1CCC2=O
TGI (A549 NSCLC): > 100 µM
TGI (SNB-19 CNS): > 100 µM
TGI (LOX IMVI melanoma): > 100 µM
TGI (A498 renal): > 100 µM
TGI (DU-145 prostate): > 100 µM
TGI (HCC-2998 colon): > 100 µM
TGI (SK-MEL-28 melanoma): > 100 µM
TGI (M14 melanoma): > 100 µM
TGI (EKVX NSCLC): > 100 µM
TGI (K-562 leukemia): > 100 µM
TGI (SNB-75 CNS): > 100 µM
TGI (OVCAR-8 ovarian): > 100 µM
TGI (OVCAR-5 ovarian): > 100 µM
TGI (HCT-15 colon): > 100 µM
TGI (IGROV1 ovarian): > 100 µM

COc1cc2[nH]c(-c3cccc(N(C)C)c3)cc(=O)c2cc1OC
TGI (A549 NSCLC): > 100 µM
TGI (SNB-19 CNS): > 100 µM
TGI (LOX IMVI melanoma): > 100 µM
TGI (A498 renal): > 100 µM
TGI (SR leukemia): > 100 µM
TGI (HCC-2998 colon): 7.5 µM
TGI (SK-MEL-28 melanoma): > 100 µM
TGI (M14 melanoma): > 100 µM
TGI (EKVX NSCLC): > 100 µM
TGI (K-562 leukemia): > 100 µM
TGI (RPMI-8226 leukemia): > 100 µM
TGI (OVCAR-8 ovarian): > 100 µM
TGI (OVCAR-5 ovarian): > 100 µM
TGI (HCT-15 colon): > 64.6 µM
TGI (IGROV1 ovarian): > 100 µM

N#CC12C3C4CC5C6C4C1C6C(O)(C53)N2Cc1ccccc1 (centres undefined)
TGI (A549 NSCLC): > 100 µM
TGI (SNB-19 CNS): > 100 µM
TGI (LOX IMVI melanoma): > 100 µM
TGI (A498 renal): > 100 µM
TGI (SR leukemia): > 100 µM
TGI (HCC-2998 colon): > 100 µM
TGI (SK-MEL-28 melanoma): > 100 µM
TGI (M14 melanoma): > 100 µM
TGI (EKVX NSCLC): > 100 µM
TGI (K-562 leukemia): > 100 µM
TGI (SNB-75 CNS): > 100 µM
TGI (RPMI-8226 leukemia): > 100 µM
TGI (OVCAR-8 ovarian): > 100 µM
TGI (OVCAR-5 ovarian): > 100 µM
TGI (HCT-15 colon): > 100 µM
TGI (IGROV1 ovarian): > 100 µM

COc1ccc(OC)c2nc3c(C(=O)NCCN(C)C)cccc3nc12
TGI (A549 NSCLC): > 34.7 µM
TGI (SNB-19 CNS): > 100 µM
TGI (LOX IMVI melanoma): 4.91 µM
TGI (A498 renal): 29.4 µM
TGI (DU-145 prostate): > 100 µM
TGI (HCC-2998 colon): 13.4 µM
TGI (SK-MEL-28 melanoma): 22.2 µM
TGI (M14 melanoma): 15.8 µM
TGI (EKVX NSCLC): 22.9 µM
TGI (K-562 leukemia): 23.2 µM
TGI (SNB-75 CNS): 32.4 µM
TGI (RPMI-8226 leukemia): > 24.2 µM
TGI (OVCAR-8 ovarian): 17.7 µM
TGI (OVCAR-5 ovarian): > 78.2 µM
TGI (HCT-15 colon): > 51.5 µM
TGI (IGROV1 ovarian): > 69.5 µM

COC(=O)N/N=C/c1oc(-c2cccc([N+](=O)[O-])c2)c(-c2cccc([N+](=O)[O-])c2)c1[N+](=O)[O-]
TGI (A549 NSCLC): > 100 µM
TGI (SNB-19 CNS): > 100 µM
TGI (LOX IMVI melanoma): > 100 µM
TGI (SR leukemia): > 100 µM
TGI (HCC-2998 colon): > 100 µM
TGI (SK-MEL-28 melanoma): > 100 µM
TGI (M14 melanoma): > 100 µM
TGI (EKVX NSCLC): > 100 µM
TGI (K-562 leukemia): > 100 µM
TGI (RPMI-8226 leukemia): > 100 µM
TGI (OVCAR-8 ovarian): > 100 µM
TGI (OVCAR-5 ovarian): > 100 µM
TGI (HCT-15 colon): > 100 µM
TGI (IGROV1 ovarian): > 100 µM

S=C(Nc1cccc(Cl)c1)Nc1ccccn1
TGI (A549 NSCLC): > 100 µM
TGI (SNB-19 CNS): > 100 µM
TGI (LOX IMVI melanoma): > 100 µM
TGI (DU-145 prostate): > 100 µM
TGI (SR leukemia): > 100 µM
TGI (SK-MEL-28 melanoma): > 100 µM
TGI (M14 melanoma): > 100 µM
TGI (EKVX NSCLC): > 100 µM
TGI (K-562 leukemia): > 100 µM
TGI (SNB-75 CNS): > 100 µM
TGI (RPMI-8226 leukemia): > 100 µM
TGI (OVCAR-8 ovarian): > 100 µM
TGI (OVCAR-5 ovarian): > 100 µM
TGI (HCT-15 colon): > 100 µM
TGI (IGROV1 ovarian): > 100 µM
